# In patent US8471061B2 (priority 2004, dated 2013):
# Several values for one entry are separate records, joined by “and”; a condition that tells them apart may be missing. Equal values may be shown once. Where a name gives a salt, the structure may show the parent alone. Read-outs that look alike come from different tables or passages of the source.
# Assays:
# [1] = tested on: Salmonella typhimurium TA 100; assay: Back mutation test, TA100; assay type: cell-based
# Procedure: (§1) A test was carried out in accordance with the “Standard of Mutagenicity Tests Using Microorganisms” (Ministry of Labor Notification No. 77, 1988) (partial revision by Ministry of Labor Notification No. 67, 1997) and “Regarding the Tests Concerning Novel Chemical Substances and the like” (dated Nov. 21, 2003: Yaku-Shoku-Hatsu No. 1121002, 2003.11.13 Sei-Kyoku, No. 2, Kan-Ho-Ki-Hatsu No. 031121002). To 0.1 ml of a solution prepared by dissolving 5% (w/v) of 5-aminolevulinic acid phosphate in distilled water (Wako Pure Chemical Industries), 0.5 ml of 0.1 M sodium-phosphate buffer (pH 7.4) (0.5 ml S9 mix in the case of metabolism activation test) was added, and 0.1 ml of each test strain suspension (5 strains of histidine-less Salmonella typhimurium TA 100, TA 98, TA 1535 and TA 1537 and tryptophan-less Escherichia coli WP2 uvrA were used (Japan Bioassay Research Center)) was further added thereto, followed by pre-incubation at 37° C. for 20 minutes while shaking. After completion of the culturing, 2.0 ml of top agar kept at 45° C. in advance was added thereto and layered on a minimum glucose agar plate medium. In this case, 2 plates were arranged for each dosage. However, 3 plates were arranged for a solvent control (negative control). […] In the measurement, an inner area of about 80 mm in diameter of a plate of 86 mm in diameter (84 mm in inner diameter) was measured using an automatic colony analyzer (CA-11: manufactured by System Science), and calculated by carrying out area correction and counting loss correction using a personal computer. However, since reliability of the automatic colony analyzer is reduced when the number of colonies is 1,500 or more, 5 points in the plate were manually measured under the stereoscopic microscope to carry out area correction of the average value. A dosage setting test was carried out on 7 dosages diluted at a common ratio of 4, using a dosage of 5,000 μg/plate as the maximum which is the maximum dosage defined by the guideline. […] Growth inhibition of the strains by this substance to be tested was not found. […] Thus, this test was carried out by setting 5 dosages diluted at a common ratio of 2, using a dosage of 5,000 μg/plate as the maximum which is the maximum dosage defined by the guideline.
# [2] = tested on: Escherichia coli WP2 uvrA; assay: Back mutation test, WP2uvrA; assay type: cell-based
# Procedure: as §1
# [3] = tested on: Salmonella typhimurium TA 98; assay: Back mutation test, TA98; assay type: cell-based
# Procedure: as §1
# [4] = tested on: Salmonella typhimurium TA 1537; conditions: TA1537; for Positive control, number of back mutation, single plates: dihydrochloride
# Procedure: (§2) A test was carried out in accordance with the “Standard of Mutagenicity Tests Using Microorganisms” (Ministry of Labor Notification No. 77, 1988) (partial revision by Ministry of Labor Notification No. 67, 1997) and “Regarding the Tests Concerning Novel Chemical Substances and the like” (dated Nov. 21, 2003: Yaku-Shoku-Hatsu No. 1121002, 2003.11.13 Sei-Kyoku, No. 2, Kan-Ho-Ki-Hatsu No. 031121002). To 0.1 ml of a solution prepared by dissolving 5% (w/v) of 5-aminolevulinic acid phosphate in distilled water (Wako Pure Chemical Industries), 0.5 ml of 0.1 M sodium-phosphate buffer (pH 7.4) (0.5 ml S9 mix in the case of metabolism activation test) was added, and 0.1 ml of each test strain suspension (5 strains of histidine-less Salmonella typhimurium TA 100, TA 98, TA 1535 and TA 1537 and tryptophan-less Escherichia coli WP2 uvrA were used (Japan Bioassay Research Center)) was further added thereto, followed by pre-incubation at 37° C. for 20 minutes while shaking. After completion of the culturing, 2.0 ml of top agar kept at 45° C. in advance was added thereto and layered on a minimum glucose agar plate medium. In this case, 2 plates were arranged for each dosage. However, 3 plates were arranged for a solvent control (negative control). […] In the measurement, an inner area of about 80 mm in diameter of a plate of 86 mm in diameter (84 mm in inner diameter) was measured using an automatic colony analyzer (CA-11: manufactured by System Science), and calculated by carrying out area correction and counting loss correction using a personal computer. However, since reliability of the automatic colony analyzer is reduced when the number of colonies is 1,500 or more, 5 points in the plate were manually measured under the stereoscopic microscope to carry out area correction of the average value. A dosage setting test was carried out on 7 dosages diluted at a common ratio of 4, using a dosage of 5,000 μg/plate as the maximum which is the maximum dosage defined by the guideline.
# [5] = tested on: Salmonella typhimurium TA 1535; conditions: TA1535
# Procedure: as §2
# radish = assay: Plant activating effect, foliar application, radish; assay type: in vivo; conditions: 21 days, 12 seeds
# Procedure: After 600 g of upland soil was packed in a porcelain pot of 12 cm in inner diameter, 12 grains of radish seeds were sowed therein, covered with 5 mm in depth of the soil and allowed to grow in a green house. Foliar application treatment was carried out once a day using the following application liquids. Conditions of the leaves 21 days thereafter were observed.
# [6] = tested on: spiderwort Commelina communis; assay: Plant activating effect, foliar application, spiderwort; assay type: in vivo; conditions: 21 days, 12 plants
# Procedure: A total of 12 pots, in which 600 g of volcanic ash soil was packed in a porcelain pot of 12 cm in inner diameter, and 1 plant of a spiderwort Commelina communis grown to a height of 15 cm was planted in 1 pot, were prepared and placed under a constant temperature environment of 20° C., and foliar application treatment was carried out once a day using the following application liquids. Conditions of the leaves 21 days thereafter were observed.
# [7] = S9 Mix not required, 0.01 μg/plate
# [8] = S9 Mix not required, 0.1 μg/plate
# [9] = S9 Mix not required, 1.0 μg/plate
# [10] = S9 Mix not required, 0.5 μg/plate
structure (smiles),measurement,setting,value
"NC(=O)C(=Cc1ccc([N+](=O)[O-])o1)c1ccco1 [AF-2, 2-(2-furyl)-3-(5-nitro-2-furyl)acrylamide, reference compound]","Positive control, number of back mutation, mean (in parentheses)",[1]; [7],(572) Colonies/plate
same,"Positive control, number of back mutation, single plates",[1]; [7],564 Colonies/plate and 580 Colonies/plate
same,"Positive control, number of back mutation, mean (in parentheses)","[1]; S9 Mix required, 1.0 μg/plate",(1230) Colonies/plate
same,"Positive control, number of back mutation, single plates","[1]; S9 Mix required, 1.0 μg/plate",1275 Colonies/plate and 1184 Colonies/plate
same,"Positive control, number of back mutation, mean (in parentheses)",[2]; [7],(152) Colonies/plate
same,"Positive control, number of back mutation, single plates",[2]; [7],155 Colonies/plate and 149 Colonies/plate
same,"Positive control, number of back mutation, mean (in parentheses)","[2]; S9 Mix required, 10.0 μg/plate",(1267) Colonies/plate
same,"Positive control, number of back mutation, single plates","[2]; S9 Mix required, 10.0 μg/plate",1230 Colonies/plate and 1304 Colonies/plate
same,"Positive control, number of back mutation, mean (in parentheses)",[3]; [8],(568) Colonies/plate
same,"Positive control, number of back mutation, single plates",[3]; [8],575 Colonies/plate and 560 Colonies/plate
same,"Positive control, number of back mutation, mean (in parentheses)","[3]; S9 Mix required, 0.5 μg/plate",(665) Colonies/plate
same,"Positive control, number of back mutation, single plates","[3]; S9 Mix required, 0.5 μg/plate",661 Colonies/plate and 668 Colonies/plate
"COc1ccc2nc3cc(Cl)ccc3c(NCCCNCCCl)c2c1 [ICR-191, 6-chloro-9-[3-(2-chloroethylamine)-propylamino]-2-methoxyacridine dihydrochloride, reference compound]","Positive control, number of back mutation, mean (in parentheses)",[4]; [9],(4001) Colonies/plate
same,"Positive control, number of back mutation, single plates",[4]; [9],4068 Colonies/plate and 3934 Colonies/plate
same,"Positive control, number of back mutation, mean (in parentheses)","[4]; S9 Mix required, 2.0 μg/plate",(262) Colonies/plate
same,"Positive control, number of back mutation, single plates","[4]; S9 Mix required, 2.0 μg/plate",257 Colonies/plate and 267 Colonies/plate
"[N-]=[N+]=[N-] [NaN3, sodium azide, reference compound]","Positive control, number of back mutation, mean (in parentheses)",[5]; [10],(210) Colonies/plate
same,"Positive control, number of back mutation, single plates",[5]; [10],203 Colonies/plate and 216 Colonies/plate
same,"Positive control, number of back mutation, mean (in parentheses)","[5]; S9 Mix required, 2.0 μg/plate",(138) Colonies/plate
same,"Positive control, number of back mutation, single plates","[5]; S9 Mix required, 2.0 μg/plate",137 Colonies/plate and 138 Colonies/plate
Cc1ccc(S(=O)(=O)O)cc1 [p-toluenesulfonic acid],plants judged 0: Abnormality was not found on the leaf surface,radish; 1 ppm in tap water,1 plant^ plants
same,plants judged 1: A region discolored to yellow was found on the leaf surface,radish; 1 ppm in tap water,2 plants
same,plants judged 2: A necrotic region was found on the leaf surface,radish; 1 ppm in tap water,9 plants
same,plants judged 0: Abnormality was not found on the leaf surface,radish; 10 ppm in tap water,1 plant^ plants
same,plants judged 1: A region discolored to yellow was found on the leaf surface,radish; 10 ppm in tap water,2 plants
same,plants judged 2: A necrotic region was found on the leaf surface,radish; 10 ppm in tap water,9 plants
same,plants judged 0: Abnormality was not found on the leaf surface,radish; 100 ppm in tap water,0 plant^ plants
same,plants judged 1: A region discolored to yellow was found on the leaf surface,radish; 100 ppm in tap water,3 plants
same,plants judged 2: A necrotic region was found on the leaf surface,radish; 100 ppm in tap water,9 plants
O=[N+]([O-])[O-].[Na+] [sodium nitrate],plants judged 0: Abnormality was not found on the leaf surface,radish; 1 ppm in tap water,2 plants
same,plants judged 1: A region discolored to yellow was found on the leaf surface,radish; 1 ppm in tap water,6 plants
same,plants judged 2: A necrotic region was found on the leaf surface,radish; 1 ppm in tap water,4 plants
same,plants judged 0: Abnormality was not found on the leaf surface,radish; 10 ppm in tap water,2 plants
same,plants judged 1: A region discolored to yellow was found on the leaf surface,radish; 10 ppm in tap water,4 plants
same,plants judged 2: A necrotic region was found on the leaf surface,radish; 10 ppm in tap water,6 plants
same,plants judged 0: Abnormality was not found on the leaf surface,radish; 100 ppm in tap water,2 plants
same,plants judged 1: A region discolored to yellow was found on the leaf surface,radish; 100 ppm in tap water,5 plants
same,plants judged 2: A necrotic region was found on the leaf surface,radish; 100 ppm in tap water,5 plants
O=P(O)(O)O [sodium phosphate],plants judged 0: Abnormality was not found on the leaf surface,[6]; 1 ppm in tap water,4 plants
same,plants judged 1: A region discolored to yellow was found on the leaf surface,[6]; 1 ppm in tap water,3 plants
same,plants judged 2: A necrotic region was found on the leaf surface,[6]; 1 ppm in tap water,5 plants
same,plants judged 0: Abnormality was not found on the leaf surface,[6]; 10 ppm in tap water,2 plants
same,plants judged 1: A region discolored to yellow was found on the leaf surface,[6]; 10 ppm in tap water,4 plants
same,plants judged 2: A necrotic region was found on the leaf surface,[6]; 10 ppm in tap water,6 plants
same,plants judged 0: Abnormality was not found on the leaf surface,[6]; 100 ppm in tap water,3 plants
same,plants judged 1: A region discolored to yellow was found on the leaf surface,[6]; 100 ppm in tap water,2 plants
same,plants judged 2: A necrotic region was found on the leaf surface,[6]; 100 ppm in tap water,7 plants
